Test results published in patent publication EP0007995A1, “Chemotherapeutic preparations and their manufacture” (F. HOFFMANN-LA ROCHE & CO. Aktiengesellschaft, priority 1978, dated 1980).

Columns and labels:
[1] = test system: Pseudomonas aeruginosa BA; assay: In vivo activity in infected mouse; settings: po; Maus, p.o., gegen Pseudomonas aeruginosa BA; read-out: CD50 p.o.
[2] = test system: menschlichen Lymphozyten; settings: human
[3] = test system: Proteus mirabilis; assay: In vivo activity in infected mouse; settings: po; Maus, p.o., gegen Proteus mirabilis; read-out: CD50 p.o.
[4] = test system: Streptococcus pyogenes β15; assay: In vivo activity in infected mouse; settings: po; Maus, p.o., gegen Streptococcus pyogenes β15; read-out: CD50 p.o.
[5] = J. Pharm. Pharmacol. 3 [1951], 143; cited from earlier work
[6] = in vivo; settings: mouse
[7] = in vivo
[8] = test system: E. coli 1346; assay: In vivo activity in infected mouse; settings: Escherichia coli, po; Maus, p.o., gegen E. coli 1346; read-out: CD50 p.o.
[9] = Water solubility; format: physicochemical
Procedure: Wie gefunden wurde, lassen sich mit Fluoramphenicol wässrige Lösungen in Konzentrationen bis zu 0,5 g/10 ml herstellen. Solche Lösungen stellen eine wertvolle parenterale Applikationsform, insbesondere für die intravenöse Injektion und -Infusion dar. Dank seiner guten Wasserlöslichkeit eignet sich Fluoramphenicol auch für die Herstellung von ophthalmologischen Präparaten mit besonders guter Verträglichkeit, insbesondere für die Herstellung von Augentropfen.

[10] = test system: KB-Zellen
[11] = test system: Salmonella typhimurium; assay: In vivo activity in infected mouse; settings: Salmonella enterica, po; Maus, p.o., gegen Salmonella typhimurium; read-out: CD50 p.o.
[12] = Acute toxicity; settings: mouse, in vivo

Row | Structure (SMILES) | ED50 [1] [mg/kg] | Cytotoxizität gegenüber menschlichen Lymphozyten, mal weniger toxisch als Chloramphenicol [2] [mal] | ED50 [3] [mg/kg] | ED50 [4] [mg/kg] | biological activity [5] | LD50 ([6]; ip) [mg/kg] | LD50 ([6]; po) [mg/kg] | metabolic stability (concluded from urine recovery) [7] | Serumkonzentrationen ([7]; po) | Urinkonzentrationen, mal höher als Chloramphenicol ([7]; po) | mal langsamer ausgeschieden als Chloramphenicol ([7]; po) | totale Urin-recovery an aktivem Fluoramphenicol, mal höher als an aktivem Chloramphenicol ([7]; po) | ED50 [8] [mg/kg] | wässrige Lösungen in Konzentrationen ([9]; aqueous solution) | Wasserlöslichkeit ([9]; result in words) | Cytotoxizität gegenüber KB-Zellen, mal weniger toxisch als Chloramphenicol [10] | ED50 [11] [mg/kg] | LD50 ([12]; ip) [mg/kg] | LD50 ([12]; po) [mg/kg]
1 | O=C(N[C@H](CO)[C@H](O)c1ccc([N+](=O)[O-])cc1)C(F)F [Fluoramphenicol, D-threo-1-(p-Nitrophenyl)-2-difluor-acetamino-l,3-propandiol] | 33 | ~3 | 5.2 | 11 | biologisch unwirksam | 2000 to 3000 | 3000 to 4000 | metabolisch beständig | höhere Serumkonzentrationen als Chloramphenicol | ca. lO | 2-3 mal | ca. lO | 6.6 | ≤ 0,5 g/10 ml | unerwartet hohe Wasserlöslichkeit | 3-5 mal | 19 |  | 
2 | O=C(N[C@H](CO)[C@H](O)c1ccc([N+](=O)[O-])cc1)C(Cl)Cl [Chloramphenicol, reference compound] | 93 |  | 5.8 | 22 |  |  |  |  |  |  |  |  | 6.6 |  |  |  | 18 | 1000 to 1500 | 2000 to 3000
